The source of these data is patent publication US11040967B2, “TYK2 inhibitors, uses, and methods for production thereof” (Nimbus Lakshmi, Inc., priority 2017, dated 2021).

The nature of data set [1]: Dissolution Assay in Fasted Simulated Gastric Fluid. It is filed as physicochemical. To be noted: Fasted Simulated Gastric Fluid (FaSSGF), 37° C. On the procedure: The dissolution bath was filled with 900 mL of media for testing, the bath temperature held at 37° C., the rotation rate of the apparatus was 50 rpm, the draw point for the sampling probe was set exactly halfway between the surface of the media and the surface of the disc. The test article (0.4 g) was compressed into a disc using a Woods apparatus. The sampling time points were 10, 30, 60, 90, 120, 150 & 180. The samples were analysed by HPLC for concentration against a sample preparation of known concentration (ca. 0.5 mg/ml). Dissolution rate was derived from the curve of concentration against time.

Data set [2] in a line: Solid form stability of Compound 1 mesylate forms. In kind it is physicochemical.

The compound `O=C1NCc2nc(-c3c(F)cccc3F)cc(Nc3ccc(C(=O)N4CCCC4)cc3)c21` [Compound 1] had a dissolution rate in data set [1] of 57.5 μg/cm^2/min.

In turn, `O=C1NCc2nc(-c3c(F)cccc3F)cc(Nc3ccc(C(=O)N4CCOCC4)cc3)c21` [Compound 9] gave a dissolution rate in data set [1] of 21.2 μg/cm^2/min. As to `CS(=O)(=O)O.O=C1NCc2nc(-c3c(F)cccc3F)cc(Nc3ccc(C(=O)N4CCCC4)cc3)c21` [Form III], in data set [2] (upon drying under ambient conditions), the solid form stability entry is “transition to Form IV”.

Regarding `CS(=O)(=O)O.O=C1NCc2nc(-c3c(F)cccc3F)cc(Nc3ccc(C(=O)N4CCCC4)cc3)c21` [Form IV], the solid form stability entry in data set [2] (ambient conditions) is recorded as “stable at ambient conditions”. Consider `CS(=O)(=O)O.O=C1NCc2nc(-c3c(F)cccc3F)cc(Nc3ccc(C(=O)N4CCCC4)cc3)c21` [Form V], for which the solid form stability entry in data set [2] (upon grinding) is recorded as “transition to Form I”.
